Test results published in ChEMBL document CHEMBL3137667, “[Drug-induced liver injury; fourteenth updated edition of the bibliographic database of liver injuries and related drugs]” (Gastroenterol Clin Biol, 2004).

Assays:
[1] = human
[2] = human; remark: listed apart in the source
[3] = Highest frequency of moderate liver toxicity observed during clinical trials, expressed as a percentage. [column '% BIOL' in source]; settings: human
[4] = human, serum
[5] = human; remark: listed apart in the source
[6] = human; remark: listed apart in the source
[7] = Proposed mechanism(s) of liver damage. [column 'MEC' in source]; settings: human
[8] = Times to onset, minimal and maximal, observed in the indexed observations. [column 'DELAI' in source]; settings: human
[9] = human; remark: listed apart in the source
[10] = human, serum; remark: listed apart in the source
[11] = Highest frequency of acute liver toxicity observed during clinical trials, expressed as a percentage. [column '% AIGUE' in source]; settings: human
[12] = human; remark: listed apart in the source
[13] = human; remark: listed apart in the source
[14] = human; remark: listed apart in the source
[15] = human; remark: listed apart in the source
[16] = human, serum, 4383 h
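Wherever Hepatotoxicity (association with vascular disease) is given: count of indexed literature references reporting vascular liver injury in humans, e.g. peliosis hepatitis, hepatic veno-occlusive disease or Budd-Chiari syndrome.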
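Wherever Hepatotoxicity (benign tumour) is given: value is a count of indexed literature references citing a benign tumour confirmed by histopathology.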
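Wherever Hepatotoxicity (choleostasis) is given: human cholestatic liver injury, shown by histopathology or by peak ALT or AST elevation over alkaline phosphatase ratio below 2, value counts indexed literature reports.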
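Wherever Hepatotoxicity (chronic liver disease) is given: chronic liver injury confirmed by histopathology or persistently raised serum aminotransferase activity beyond 6 months, value given as the count of indexed literature references.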
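Wherever Hepatotoxicity (cirrhosis) is given: value is a count of indexed literature references reporting cirrhosis confirmed by histopathology.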
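Wherever Hepatotoxicity (cytolytic) is given: human cytolytic liver injury, shown by histopathology or by a ratio above 5 of peak ALT or AST elevation to alkaline phosphatase elevation, value counts indexed references.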
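Wherever Hepatotoxicity (granulomatous hepatitis) is given: value is a count of indexed literature references reporting granulomatous liver disease confirmed by histopathology.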
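Wherever Hepatotoxicity (malignant tumour) is given: malignant tumour confirmed by histopathology, value gives the count of indexed literature references reporting it.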
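Wherever Hepatotoxicity (severe hepatitis) is given: human clinical data: severe hepatitis, meaning potentially life-threatening liver failure or clinically observed cases, the value counts how many indexed literature references report it.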
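Wherever Hepatotoxicity (steatosis) is given: steatosis confirmed by histopathology, value is the count of indexed references.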

| Structure (SMILES) | Hepatotoxicity (malignant tumour) [1] | Hepatotoxicity (cytolytic) [2] | Hepatotoxicity (moderate) [3] [%] | Hepatotoxicity (moderate) [4] | Hepatotoxicity (choleostasis) [5] | Hepatotoxicity (granulomatous hepatitis) [6] | Hepatotoxicity (mechanism) [7] | Hepatotoxicity (time to onset) [8] | Hepatotoxicity (cirrhosis) [9] | Hepatotoxicity (acute) [10] | Hepatotoxicity (acute) [11] [%] | Hepatotoxicity (steatosis) [12] | Hepatotoxicity (benign tumour) [13] | Hepatotoxicity (severe hepatitis) [14] | Hepatotoxicity (association with vascular disease) [15] | Hepatotoxicity (chronic liver disease) [16] | other results |
| --- | --- | --- | --- | --- | --- | --- | --- | --- | --- | --- | --- | --- | --- | --- | --- | --- | --- |
| CN[C@@H]1[C@H](O[C@H]2[C@H](O[C@H]3[C@H](O)[C@@H](O)[C@H](NC(=N)N)[C@@H](O)[C@@H]3NC(=N)N)O[C@@H](C)[C@]2(O)CO)O[C@@H](CO)[C@H](O)[C@H]1O [DIHYDROSTREPTOMYCIN] | 0 | 1 | 0 | 0 | 0 | 0 | Allergic | < 1 days | 0 | 1 | 0 | 0 | 0 | 0 | 0 | 0 |  |
| C[C@H](CCc1ccccc1)NC[C@H](O)c1ccc(O)c(C(N)=O)c1 [DILEVALOL] | 0 | 1 | 2 | 1 | 0 | 0 | Allergic | 2 weeks | 0 | 1 | 0 | 0 | 0 | 1 | 0 | 0 |  |
| Cc1c(N(C)CS(=O)(=O)[O-])c(=O)n(-c2ccccc2)n1C.[Na+] [DIPYRONE SODIUM] | 0 | 0 | 0 | 1 | 0 | 0 | Allergic | 2 hours - 18 days | 0 | 3 | 0 | 0 | 0 | 0 | 0 | 0 |  |
| O=C1Nc2ccc(Cl)cc2[C@@](C#CC2CC2)(C(F)(F)F)O1 [EFAVIRENZ] | 0 | 8 | 18.8 | 2 | 2 | 0 | Allergic | 10 days - 4 weeks | 0 | 8 | 10.9 | 0 | 0 | 4 | 0 | 0 |  |
| COc1cc(/C=C/C(=O)O)ccc1O [FERULATE] | 0 | 1 | 0 | 0 | 1 | 0 | Dose-dependant | 2 days - 5 years | 2 | 2 | 0 | 0 | 0 | 0 | 0 | 1 |  |
| Nc1nc(=O)[nH]cc1F [FLUCYTOSINE] | 0 | 3 | 55 | 22 | 3 | 0 | Dose-dependant | 2 weeks - 2 months | 0 | 5 | 2 | 0 | 0 | 2 | 0 | 0 |  |
| CC1CCc2cc(F)cc3c(=O)c(C(=O)O)cn1c23 (centres undefined) [FLUMEQUINE] | 0 | 0 | 0 | 0 | 0 | 1 | Allergic | 24 days | 0 | 0 | 0 | 0 | 0 | 0 | 0 | 0 |  |
| NCC1(CC(=O)O)CCCCC1 [GABAPENTIN] | 0 | 1 | 2.4 | 2 | 3 | 0 | Allergic | 9 days - 4 months | 0 | 5 | 2.4 | 1 | 0 | 0 | 0 | 0 |  |
| Cc1ccc(S(=O)(=O)NC(=O)NN2CC3CCCC3C2)cc1 (centres undefined) [GLICLAZIDE] | 0 | 2 | 0 | 1 | 1 | 0 | Allergic | 4 weeks - 5 weeks | 0 | 3 | 0 | 0 | 0 | 0 | 0 | 0 |  |
| c1ccc2c(CCC3CCNCC3)c[nH]c2c1 [INDALPINE] | 0 | 1 | 0 | 1 | 1 | 0 | Allergic | 25 days - 4 months | 0 | 1 | 0 | 1 | 0 | 0 | 0 | 0 |  |
| CNC(=O)c1c(I)c(C(=O)NCC(=O)Nc2c(I)c(C(=O)O)c(I)c(C(=O)NCCO)c2I)c(I)c(N(C)C(C)=O)c1I [IOXAGLIC ACID] | 0 | 1 | 0 | 0 | 0 | 0 | Allergic | 1 days | 0 | 1 | 0 | 0 | 0 | 0 | 0 | 0 |  |
| CC1=C(/C=C/C(C)=C/C=C/C(C)=C\C(=O)O)C(C)(C)CCC1 [ISOTRETINOIN] | 0 | 1 | 44.4 | 35 | 0 | 0 | Dose-dependant | 4 months | 0 | 3 | 8.8 | 1 | 0 | 0 | 0 | 0 |  |
| CC(=O)CCC1C(=O)N(c2ccccc2)N(c2ccccc2)C1=O [KEBUZONE] | 0 | 3 | 26.7 | 1 | 3 | 0 | Allergic | 1 week - 1 month | 0 | 4 | 2.7 | 0 | 0 | 0 | 0 | 0 |  |
| CNCCCC12CCC(c3ccccc31)c1ccccc12 [MAPROTILINE] | 0 |  |  | 5 |  |  |  | 2 days - 4 years | 0 | 8 |  | 0 | 0 |  | 0 | 0 | Hepatotoxicity (cytolytic) ([2]; Liver): 7; Hepatotoxicity (moderate) ([3]; Liver): 25%; Hepatotoxicity (choleostasis) ([5]; Liver): 4; Hepatotoxicity (granulomatous hepatitis) ([6]; Liver): 0; Hepatotoxicity (mechanism) ([7]; Liver): Dose-dependant; Hepatotoxicity (acute) ([11]; Liver): 0%; Hepatotoxicity (severe hepatitis) ([14]; Liver): 0 |
